Data: patent US20260028354A1, “TETRAHYDRONAPHTHALENE DERIVATIVES AS ESTROGEN RECEPTOR DEGRADERS” (REGENT OF THE UNIVERSITY OF MICHIGAN, priority 2022, published 2026)
Read-outs that look alike come from different tables or passages of the source.

Legend:
[1] = biological target: ER in T47D cells (Homo sapiens (Human), UniProt P03372); test: In-cell Western (ICW) ER degradation assay in T47D cells; format: cell-based; settings: for DC50: ER degradation
[2] = biological target: ERα_LBD (GST) (Homo sapiens (Human), UniProt P03372); test: IC50 measurements for binding to ERα_LBD (GST), LanthaScreen TR-FRET competitive binding; settings: ERα_LBD (GST) 4 nM, Fluormone ES2 Green tracer, 60 min; read-out: ERα HTRF IC50
Sequence of ERα_LBD (GST) (P03372 311-547): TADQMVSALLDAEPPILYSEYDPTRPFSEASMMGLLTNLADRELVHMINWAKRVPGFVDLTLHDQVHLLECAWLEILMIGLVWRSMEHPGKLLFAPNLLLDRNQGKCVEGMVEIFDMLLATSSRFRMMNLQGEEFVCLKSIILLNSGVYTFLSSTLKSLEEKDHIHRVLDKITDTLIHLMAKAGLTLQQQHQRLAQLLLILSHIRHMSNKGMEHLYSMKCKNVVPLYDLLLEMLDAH
Experimental: In vitro Assay: IC50 Measurements for binding to ERα_LBD (GST) • Final assay conditions: • 1. ERα_LBD (GST) protein: 4 nM • 2. Tb Anti-GST: 2 nM • 3. Fluormone ES2 Green tracer: 3 nM • 4. Incubation time: 60 min • 5. DMSO: 1% • 6. Assay buffer: Adding 1M DTT to Nuclear receptor Buffer K for final 5 mM DTT. • 7. ZPE: 1% DMSO • 8. HPE: 1 μM ARV_471 (positive control) • 9. LanthaScreen® TR-FRET ERα Competitive Binding Assay (ThermoFisher, #A^15887) • 100× Compound preparation
1) Cherry pick 2 μL 10 mM compound stock to column 1 of a 384 intermediate plate. • 2) Add 18 μL DMSO to column 1 to dilute compound to 1 mM. • 3) Transfer 10 μL 1 mM compound to column 1 of a LDV plate. • 2) Add 6 μl DMSO to column 2-10 of the LDV plate. • 3) Compounds undergo 3-fold serial dilution (3 μL+6 μL) in DMSO. • 4) Transfer 120 nL compound solution to assay plate. ZPE: 120 nL 100% DMSO • Procedure:
Complete nuclear receptor buffer K was prepared by adding 1 M DTT to nuclear receptor buffer K for a final concentration of 5 mM DTT. Complete nuclear receptor buffer K must be prepared fresh daily, 2X protein solution was prepared using complete nuclear receptor buffer K containing 8 nM ERα_LBD (GST) and 4 nM Tb Anti-GST. Then, 2X Fluormone ES2 Green tracer (6 nM) was prepared using complete nuclear receptor buffer K. Add 6 μL 2X Fluormone ES2 green tracer into a compound plate (PerkinElmer 6008289) by dragonfly with one-tips-addition. Subsequently, 6 μL 2× protein solution was added into the plate. The 384-well plate was mixed on a plate shaker and incubated at room temperature protected from light for 60 min. The plate was scaled with a cover to minimize evaporation. The plate was read at wavelengths of 520 nm and 495 nm. The TR-FRET ratio was calculated by dividing the emission signal at 520 nm by the emission signal at 495 nm. A binding curve was generated by plotting the emission ratio vs, the log [ligand]. To determine the IC50 value, fit the data using XL-fit for a sigmoidal dose-response.

[3] = biological target: ER in MCF-7 cells (Homo sapiens (Human), UniProt P03372); test: In-cell Western (ICW) ER degradation assay in MCF-7 cells; format: cell-based; settings: for DC50: MCF-7, ER degradation, read-out: MCF7 DC50
Sequence of ER in MCF-7 cells (P03372 whole entry): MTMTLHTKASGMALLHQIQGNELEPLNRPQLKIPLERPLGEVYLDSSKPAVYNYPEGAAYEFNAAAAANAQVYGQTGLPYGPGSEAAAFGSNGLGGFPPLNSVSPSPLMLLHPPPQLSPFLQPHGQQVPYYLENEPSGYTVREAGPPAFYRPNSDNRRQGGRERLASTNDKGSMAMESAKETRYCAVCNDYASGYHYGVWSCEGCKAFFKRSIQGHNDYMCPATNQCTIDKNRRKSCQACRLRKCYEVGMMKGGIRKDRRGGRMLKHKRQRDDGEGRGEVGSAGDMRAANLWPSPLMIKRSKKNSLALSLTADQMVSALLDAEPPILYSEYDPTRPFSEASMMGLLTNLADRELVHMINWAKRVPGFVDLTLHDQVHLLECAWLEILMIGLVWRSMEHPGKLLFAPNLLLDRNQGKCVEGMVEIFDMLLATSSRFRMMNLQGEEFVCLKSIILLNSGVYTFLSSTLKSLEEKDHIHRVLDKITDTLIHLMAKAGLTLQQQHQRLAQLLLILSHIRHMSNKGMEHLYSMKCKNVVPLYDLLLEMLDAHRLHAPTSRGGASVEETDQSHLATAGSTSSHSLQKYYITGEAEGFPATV

[4] = maximal ER degradation, 16 hrs treatment, read-out: T47D Dmax
[5] = MCF7, MCF-7, maximal ER degradation, 16 hrs treatment, read-out: MCF7 Dmax
[6] = read-out: T47D Dmax, T47D, maximal ER degradation, 16 hrs treatment
[7] = MCF7, read-out: MCF7 Dmax, MCF-7, maximal ER degradation, 16 hrs treatment

Sequence of ER in T47D cells (P03372 whole entry): as above

SMILES: COc1cc(N2CCC3(CC2)CC(CN2CCC(c4ccc(N[C@H]5CCC(=O)NC5=O)cc4)CC2)C3)c(F)cc1[C@H]1c2ccc(O)cc2CC[C@H]1c1ccccc1 (single isomer, unassigned) [Compound A32]
- DC50 ([1]; 16 hrs treatment): 10 to 100 nM
- Dmax [1, 4]: 50 to 75%
- IC50 [2]: > 100 nM
- Dmax [3, 5]: 50 to 75%
- DC50 ([3]; 16 hrs treatment): 10 to 100 nM

SMILES: COc1cc(N2CCC3(CC2)CC(CN2CCN4c5ccc6c(c5OC[C@H]4C2)CN([C@H]2CCC(=O)NC2=O)C6=O)CO3)ccc1[C@H]1c2ccc(O)cc2CC[C@H]1c1ccccc1 (single isomer, unassigned) [Compound A52]
- DC50 ([1]; 16 hrs treatment): < 1 nM
- Dmax [1, 6]: > 75%
- IC50 [2]: < 10 nM
- Dmax [3, 7]: 50 to 75%
- DC50 ([3]; 16 hrs treatment): < 1 nM

SMILES: COc1cc(N2CCC3(CC2)CC(CN2CCN4c5cc6c(cc5OC[C@@H]4C2)C(=O)N([C@H]2CCC(=O)NC2=O)C6)CO3)ccc1[C@H]1c2ccc(O)cc2CC[C@H]1c1ccccc1 (single isomer, unassigned) [Compound A56]
- DC50 ([1]; 16 hrs treatment): < 1 nM
- Dmax [1, 6]: > 75%
- IC50 [2]: < 10 nM
- Dmax [3, 7]: 50 to 75%
- DC50 ([3]; 16 hrs treatment): < 1 nM

SMILES: O=C1CC[C@H](N2Cc3c(ccc4c3OC[C@H]3CN(CC5CCC6(CC5)CN(c5ccc([C@@H]7c8ccc(O)cc8CC[C@@H]7c7ccccc7)cn5)C6)CCN43)C2=O)C(=O)N1 (single isomer, unassigned) [Compound A123]
- Dmax [1, 4]: > 75%
- IC50 [2]: < 10 nM
- Dmax [3, 5]: > 75%

SMILES: COc1cc(N2CCC(CN3CCC4(CC3)COc3cc5c(cc34)CN([C@H]3CCC(=O)NC3=O)C5=O)CC2)ccc1[C@@H]1c2ccc(O)cc2CC[C@@H]1c1ccccc1 [Compound A33, (R)-3-(1′-((1-(4-((1R,2R)-6-hydroxy-2-phenyl-1,2,3,4-tetrahydronaphthalen-1-yl)-3-methoxyphenyl)piperidin-4-yl)methyl)-7-oxo-5,7-dihydro-2H,6H-spiro[furo[2,3-f]iso-indole-3,4′-piperidin]-6-yl)-piperidine-2,6-dione]
- DC50 ([1]; 16 hrs treatment): < 1 nM
- Dmax [1, 6]: 50 to 75%
- IC50 [2]: < 10 nM
- Dmax [3, 7]: 50 to 75%
- DC50 ([3]; 16 hrs treatment): < 1 nM

SMILES: COc1cc(N2CCC(CN3CCN4c5cc6c(cc5OC[C@@H]4C3)C(=O)N([C@H]3CCC(=O)NC3=O)C6)CC2)c(F)cc1[C@@H]1c2ccc(O)cc2CC[C@@H]1c1ccccc1 [Compound A91, (S)-3-((S)-3-((1-(2-fluoro-4-((1S,2S)-6-hydroxy-2-phenyl-1,2,3,4-tetrahydronaphthalen-1-yl)-5-methoxyphenyl)piperidin-4-yl)methyl)-8-oxo-3,4,4a,5-tetrahydro-1H-pyrazino[1′,2′: 4,5][1,4]oxazino[2,3-f]isoindol-9 (2H,8H,10H)-yl)piperidine-2,6-dione]
- DC50 ([1]; 16 hrs treatment): < 1 nM
- Dmax [1, 4]: > 75%
- IC50 [2]: < 10 nM
- Dmax [3, 5]: > 75%
- DC50 ([3]; 16 hrs treatment): < 1 nM

SMILES: COc1cc(N2CCC3(CC2)CC(CN2CCN4c5ccc6c(c5OC[C@H]4C2)CN([C@H]2CCC(=O)NC2=O)C6=O)C3)c(F)cc1[C@@H]1c2ccc(O)cc2CC[C@@H]1c1ccccc1 [Compound A99, (S)-3-((R)-7-((7-(2-fluoro-4-((1S,2S)-6-hydroxy-2-phenyl-1,2,3,4-tetrahydronaphthalen-1-yl)-5-methoxyphenyl)-7-azaspiro[3.5]nonan-2-yl)methyl)-1-oxo-1,3,5,5a,6,7,8,9-octahydro-2H-pyrazino[1′,2′:4,5][1,4]oxazino[2,3-e]isoindol-2-yl)piperidine-2,6-dione]
- DC50 ([1]; 16 hrs treatment): < 1 nM
- Dmax [1, 4]: > 75%
- IC50 [2]: < 10 nM
- Dmax [3, 5]: > 75%
- DC50 ([3]; 16 hrs treatment): < 1 nM

SMILES: COc1cc(N2CCC3(CC2)CC(CN2CCC4(CC2)COc2cc5c(cc24)CN([C@H]2CCC(=O)NC2=O)C5=O)C3)c(F)cc1[C@@H]1c2ccc(O)cc2CC[C@@H]1c1ccccc1 [Compound A129, (S)-3-(1′-((7-(2-fluoro-4-((1S,2S)-6-hydroxy-2-phenyl-1,2,3,4-tetrahydronaphthalen-1-yl)-5-methoxyphenyl)-7-azaspiro[3.5]nonan-2-yl)methyl)-7-oxo-5,7-dihydro-2H,6H-spiro[furo[2,3-f]isoindole-3,4′-piperidin]-6-yl)piperidine-2,6-dione]
- DC50 ([1]; 16 hrs treatment): < 1 nM
- Dmax [1, 6]: > 75%
- IC50 [2]: < 10 nM
- Dmax [3, 7]: > 75%
- DC50 ([3]; 16 hrs treatment): < 1 nM
